Patent US20140336138A1, “COMPOSITIONS AND METHODS FOR SCREENING AND TREATMENT OF STURGE-WEBER SYNDROME, KLIPPEL-TRENAUNAY-WEBER SYNDROME, AND PORT-WINE STAINS (PWSS)” (The Johns Hopkins University, priority 2013, published 2014)

How the values were obtained:
phosphorylated-ERK = test: Western analysis of phosphorylated-ERK in 293T cells transfected with GNAQ p.R183Q, normalized to tubulin; format: cell-based, human; conditions: 100 nM digoxin, 42 hours, p=0.0003
Description: 293T cells will be transiently transfected with wildtype, GNAQ, the p.Arg183Gln, or the p.Gln209Leu mutant constructs. Fugene6 (Promega) is used for the 293T transfections (3:1 ratio Fugene6:DNA). The cells are transfected at 60-75% confluency for about an hour.
Levels of phosphorylated-ERK (rabbit monoclonal Phospho-p44/42 MAPK (Erk1/2) Cell Signaling Technology) and phosphorylated-JNK are measured by western analysis and normalized to tubulin. RGS2 and/or RGS4 levels are measured by western analysis and normalized to tubulin. Protein samples are collected from three replicates per cell type and condition. Additionally, similar experiments are performed with the p.Gln209Leu GNAQ mutants as well.

[1] = system: cells transfected with the R183Q mutation; test: Cell death / appearance of drug treated R183Q transfected cell cultures; format: cell-based, human; conditions: 100 nM digoxin
RGS2 = conditions: cited from earlier work
RGS4 = conditions: cited from earlier work

C[C@H]1O[C@@H](O[C@H]2[C@@H](O)C[C@H](O[C@H]3[C@@H](O)C[C@H](O[C@H]4CC[C@@]5(C)[C@H](CC[C@@H]6[C@@H]5C[C@@H](O)[C@]5(C)[C@@H](C7=CC(=O)OC7)CC[C@]65O)C4)O[C@@H]3C)O[C@@H]2C)C[C@H](O)[C@@H]1O [digoxin]
p-ERK increase (drug vs vehicle) (phosphorylated-ERK): about 3.9 fold
cell death in drug treated cell cultures ([1]; 18 hours): increased cell death
cell death / growth in drug treated cells ([1]; 42 hours): increased cell death/less growth
RGS2 protein levels (RGS2): increase
RGS4 protein levels (RGS4): not

C[C@@H]1O[C@@H](O[C@H]2C[C@@H](O)[C@]3(CO)[C@H]4[C@H](O)C[C@]5(C)[C@@H](C6=CC(=O)OC6)CC[C@]5(O)[C@@H]4CC[C@]3(O)C2)[C@H](O)[C@H](O)[C@H]1O [ouabain]
RGS2 protein levels (RGS2): increase
RGS4 protein levels (RGS4): not
